Test results taken from patent publication US20140314857A1, “FORMULATIONS FOR ENHANCED BIOAVAILABILITY OF ZANAMIVIR” (priority 2012, published 2014).
“And” between values parts separate entries of the source, which are not always exact repeats. Identical values can stand only once.

Experiments:
[1] = Varying zanamivir levels at fixed 50 µL Capmul MCM L8, intraduodenal administration; type: in vivo, male Sprague-Dawley rats; settings: male, Sprague-Dawley, rat, plasma, ID
Source text: (§1) Male Sprague-Dawley rats (Hilltop Labs), 3 animals per treatment group, 250-350 grams in weight, were fitted with a jugular vein cannula (JVC). Animals intended for intraduodenal dosing were also fitted with one or more intraduodenal cannula (IDC) and those intended for intravenous dosing were fitted with a second JVC. Food was withheld from the animals for a minimum of twelve hours prior to test article administration and was returned approximately four hours post-dose. Water was supplied ad libitum.
(§2) Intravenous dosing was conducted by the injection of 1.5 mg of zanamivir in 200 μL of PBS through a JVC. For some experiments, the absorption enhancer was administered intraduodenally 2 hr prior to administering 1.5 mg of zanamivir in PBS through a second IDC. Each intraduodenal dose was followed with the introduction of a small air bubble (˜10 μL) in the cannula followed by a flush of 125 μL of PBS to ensure the dose was given in full. The volume of PBS used for cannula flush was consistent across the treatment groups. The cannula was tied to prevent the PBS remaining in the cannula from entering the duodenum.
(§3) Blood samples collected via the JVC, approximately 400 μL each, were obtained at 2 min, 5 min, 15 min, 30 min, 60 min, 90 min, and 120 min, with sodium heparin used as an anti-coagulant. Each sample was placed into a chilled tube containing the anticoagulant and kept on ice until centrifugation at 4° C., 3,000×g, for 5 min. The plasma supernatants were stored at −70° C. until LC-MS analysis.

[2] = test system: Caco-2 cell monolayers; experiment: Unidirectional (A-to-B) permeability of zanamivir across Caco-2 cell monolayers with and without excipients; type: in vitro ADME; settings: vs no enhancer
Procedure: Caco-2 cells were obtained from American Type Culture Collection (Rockville, Md.). Stock cultures were maintained in flasks with DMEM medium supplemented with 10% FBS, 1% non-essential amino acids, 1 mmol/L sodium pyruvate, 100 IU/mL penicillin, and 100 μg/mL streptomycin in a humidified incubator (37° C., 5% CO2). Cells were harvested by trypsinization and seeded at 60,000 cells/cm^2 onto Costar Transwell® 12-well dual-chamber plates with collagen-coated, microporous polycarbonate membranes (1.13 cm^2 insert area, 0.4 μm pore size; Corning Life Sciences, Acton, Mass.) for permeability studies. The culture medium was changed three times per week. […]
Unidirectional (A-to-B) permeability of zanamivir was determined at 15 μg/mL in the absence and presence of varying concentrations of excipients in Caco-2 cell monolayers. […]
Assays were conducted by seeding approximately 68,000 viable Caco-2 cells in 1.12 cm^2 Costar Transwell inserts (12-well format, 0.4 micron pore size PET membranes) in Dulbecco's Modified Eagles Medium (high glucose) supplemented with 20% fetal bovine serum, glutamine, pyruvate, non-essential amino acids, epidermal growth factor, ITS (insulin, transferrin, selenium), and penicillin/streptomycin. […] Transepithelial electrical resistance (TEER) readings were conducted to test the quality of the cell monolayer on the Transwell membrane. […]

[3] = Intravenous and intraduodenal bioavailability of zanamivir from three formulations (Example 5); settings: for C0: extrapolated to t = 0; for concentration at 0.25 hr / concentration at 0.5 hr / concentration at 0.83 hr / concentration at 1 hr / concentration at 1.5 hr / concentration at 2 hr / concentration at 0.033 hr / concentration at 0.083 hr: 1.5 mg/animal, Plasma concentration; for clearance: CL; for Vd: Vss
Source text: as §1
as §2, with “Intraduodenal doses composed of 1.5 mg of zanamivir and varying amounts of an enhancer (glycerol or Capmul MCM L8) were injected directly into the duodenum via the IDC. Intravenous” for “Intravenous”
as §3
Dosing solution samples were assayed by LC-MS/MS using electrospray ionization. The chromatographic system consisted of Perkin Elmer series 200 micropumps and autosampler equipped with a Waters Atlantic® HILIC Silica 3 μM, 2.1×50 mm column. The mass spectrometer was a PE Sciex API 4000 with electrospray interface in multiple reaction monitoring mode. […] Stock solutions (1 mg/mL zanamivir) were prepared in water. Standards (eight concentrations) were prepared in the appropriate matched matrix (HBSSg or Sprague-Dawley rat plasma containing sodium heparin) and diluted 50-fold with methanol. Experimental samples were treated identically.
Standards and samples were prepared in Sprague Dawley rat plasma containing sodium heparin as an anticoagulant. An eight-point calibration curve was prepared at concentrations of 1000, 750, 500, 250, 100, 50, 25, and 10 ng/mL by serial dilution. Standard samples were treated identically to the study samples.
Plasma samples were extracted by protein precipitation in methanol.
In this example, the bioavailability of Zanamivir was evaluated after intravenous and intraduodenal doses in male Sprague-Dawley rats. The test compound was dosed at 1.5 mg/animal through intravenous and intraduodenal routes from different formulations. Plasma levels were determined by LC-MS/MS analysis. Pharmacokinetic parameters were estimated by a non-compartmental model using WinNonlin v4.1 software.

[4] = IV 1.5 mg/animal, Normal Saline, Ex.5, individual rats
[5] = male, Sprague-Dawley, rat, in vivo, ID 1.5 mg/animal, Capmul MCM L8 50 µL, Ex.5, mean
[6] = male, Sprague-Dawley, rat, in vivo, ID 1.5 mg/animal, Glycerol 50 µL, individual rats
[7] = male, Sprague-Dawley, rat, in vivo, ID 1.5 mg/animal, Glycerol 50 µL, mean
[8] = male, Sprague-Dawley, rat, in vivo, ID 1.5 mg/animal, PBS 50 µL, mean
[9] = male, Sprague-Dawley, rat, in vivo, ID 1.5 mg/animal, PBS 50 µL, individual rats
[10] = male, Sprague-Dawley, rat, in vivo, ID 1.5 mg/animal, PBS, 50 µL blank glycerol -2 hr, individual rats
[11] = male, Sprague-Dawley, rat, in vivo, ID 1.5 mg/animal, PBS, 50 µL blank glycerol -2 hr, mean
[12] = male, Sprague-Dawley, rat, in vivo, iv, 1.5 mg, IV 1.5 mg/animal, Normal Saline, Ex.5, individual rats
[13] = male, Sprague-Dawley, rat, in vivo, iv, 1.5 mg, IV 1.5 mg/animal, Normal Saline, Ex.5, mean
[14] = male, Sprague-Dawley, rat, in vivo, iv, IV 1.5 mg/animal, Normal Saline, Ex.5, individual rats
[15] = male, Sprague-Dawley, rat, in vivo, iv, IV 1.5 mg/animal, Normal Saline, Ex.5, mean

## CC(=O)NC1C(NC(=N)N)C=C(C(=O)O)OC1C(O)C(O)CO (stereo not drawn) [Zanamivir, 5-acetamido-4-guanidino-6-(1,2,3-trihydroxypropyl)-5,6-dihydro-4H-pyran-2-carboxylic acid]
[1]; 0.75 mg zanamivir in 50 µL Capmul MCM L8
  Tmax: 4.8 min
[1]; 1.5 mg zanamivir in 50 µL Capmul MCM L8
  Tmax: 4.8 min
[1]; 3.0 mg zanamivir in 50 µL Capmul MCM L8
  Tmax: 8.4 min
[2]; optimized concentration of Capmul MCM L8 (0.25%)
  increase in apparent permeability coefficient (Papp): > 5 fold
[2]; optimized concentration of glycerol (5%)
  increase in apparent permeability coefficient (Papp): > 5 fold
[3]; ID 1.5 mg/animal, Capmul MCM L8 50 µL, Ex.5, individual rats
  T1/2: 27 min and 33 min
[3]; ID 1.5 mg/animal, PBS, 50 µL blank glycerol -2 hr, individual rats
  t1/2: 39.6 min and 110 min
[3]; IV 1.5 mg/animal, Normal Saline, Ex.5, 0.083 hr, individual rats
  Plasma concentration: 17900 ng/mL and 16300 ng/mL
[3]; [4]
  C0: 26943 ng/mL and 32278 ng/mL
  CL: 7.83 mL/min/kg and 8.67 mL/min/kg
  Vss: 0.26 L/kg
  t1/2: 27.6 min
[3]; male, Sprague-Dawley, rat, in vivo, 1.5 mg, T1/2, ID 1.5 mg/animal, Capmul MCM L8 50 µL, Ex.5, individual rats
  half-life: 28.2 min
[3]; male, Sprague-Dawley, rat, in vivo, 1.5 mg, T1/2, ID 1.5 mg/animal, Capmul MCM L8 50 µL, Ex.5, mean
  half-life: 29.4 min
[3]; male, Sprague-Dawley, rat, in vivo, 1.5 mg, t1/2, ID 1.5 mg/animal, Glycerol 50 µL, individual rats
  half-life: 17.4 min
[3]; male, Sprague-Dawley, rat, in vivo, 1.5 mg, t1/2, ID 1.5 mg/animal, Glycerol 50 µL, mean
  half-life: 17.4 min
[3]; male, Sprague-Dawley, rat, in vivo, 1.5 mg, t1/2, ID 1.5 mg/animal, PBS 50 µL, individual rats
  half-life: 49.8 min
[3]; male, Sprague-Dawley, rat, in vivo, 1.5 mg, t1/2, ID 1.5 mg/animal, PBS 50 µL, mean
  half-life: 49.8 min
[3]; male, Sprague-Dawley, rat, in vivo, 1.5 mg, t1/2, ID 1.5 mg/animal, PBS, 50 µL blank glycerol -2 hr, mean
  half-life: 74.4 min
[3]; male, Sprague-Dawley, rat, in vivo, 1.5 mg, ID 1.5 mg/animal, Glycerol 50 µL, mean
  Tmax: 30 min
[3]; male, Sprague-Dawley, rat, in vivo, 1.5 mg, ID 1.5 mg/animal, PBS 50 µL, individual rats
  Tmax: 30 min
[3]; male, Sprague-Dawley, rat, in vivo, 1.5 mg, ID 1.5 mg/animal, PBS 50 µL, mean
  Tmax: 30 min
[3]; male, Sprague-Dawley, rat, in vivo, 1.5 mg, ID 1.5 mg/animal, PBS, 50 µL blank glycerol -2 hr, mean
  Tmax: 34.8 min
[3]; [5]
  concentration at 0.25 hr: 4350 ng/mL
  concentration at 0.5 hr: 2910 ng/mL
  concentration at 0.83 hr: 7230 ng/mL
  concentration at 1 hr: 1080 ng/mL
  concentration at 1.5 hr: 578 ng/mL
  concentration at 2 hr: 274 ng/mL
[3]; [6]
  concentration at 0.25 hr: 1060 ng/mL
  concentration at 0.5 hr: 817 ng/mL
  concentration at 0.83 hr: 123 ng/mL
  concentration at 1.5 hr: 123 ng/mL
  concentration at 2 hr: 52.1 ng/mL
[3]; [7]
  concentration at 0.25 hr: 928 ng/mL
  concentration at 0.5 hr: 744 ng/mL
  concentration at 0.83 hr: 102 ng/mL
  concentration at 1 hr: 415 ng/mL
  concentration at 1.5 hr: 93 ng/mL
  concentration at 2 hr: 61 ng/mL
[3]; [8]
  concentration at 0.25 hr: 96 ng/mL
  concentration at 0.5 hr: 134 ng/mL
  concentration at 0.83 hr: 38.7 ng/mL
  concentration at 1 hr: 86.4 ng/mL
  concentration at 1.5 hr: 61.1 ng/mL
  concentration at 2 hr: 52.1 ng/mL
[3]; [9]
  concentration at 1.5 hr: 59.6 ng/mL
  concentration at 2 hr: 60.2 ng/mL
[3]; [10]
  concentration at 0.25 hr: 60.9 ng/mL
  concentration at 0.83 hr: 55.3 ng/mL
[3]; [11]
  concentration at 0.25 hr: 59.3 ng/mL
  concentration at 0.5 hr: 66.3 ng/mL
  concentration at 0.83 hr: 52.2 ng/mL
  concentration at 1 hr: 63.7 ng/mL
  concentration at 1.5 hr: 47.5 ng/mL
  concentration at 2 hr: 51.4 ng/mL
[3]; male, Sprague-Dawley, rat, in vivo, inherent absolute bioavailability
  bioavailability: < 2%
[3]; male, Sprague-Dawley, rat, in vivo, iv, 1.5 mg, C0, IV 1.5 mg/animal, Normal Saline, Ex.5, individual rats
  C0: 33400 ng/mL
[3]; male, Sprague-Dawley, rat, in vivo, iv, 1.5 mg, C0, IV 1.5 mg/animal, Normal Saline, Ex.5, mean
  C0: 30900 ± 3440 ng/mL
[3]; [12]
  clearance: 8.17 mL/min/kg
  Vd: 0.21 L/kg
  Tmax: 0 min
[3]; [13]
  clearance: 8.17 mL/min/kg
  Vd: 0.24 ± 0.02 L/kg
  Tmax: 0 min
[3]; male, Sprague-Dawley, rat, in vivo, iv, 1.5 mg, t1/2, IV 1.5 mg/animal, Normal Saline, Ex.5, individual rats
  half-life: 30.6 min
[3]; male, Sprague-Dawley, rat, in vivo, iv, 1.5 mg, t1/2, IV 1.5 mg/animal, Normal Saline, Ex.5, mean
  half-life: 29.4 ± 1.8 min
[3]; [14]
  concentration at 0.033 hr: 26900 ng/mL
  concentration at 0.25 hr: 11700 ng/mL
  concentration at 0.5 hr: 6610 ng/mL
  concentration at 1 hr: 1650 ng/mL
  concentration at 1.5 hr: 709 ng/mL
  concentration at 2 hr: 423 ng/mL
[3]; [15]
  concentration at 0.033 hr: 24800 ng/mL
  concentration at 0.25 hr: 11200 ng/mL
  concentration at 0.5 hr: 6450 ng/mL
  concentration at 1 hr: 2100 ng/mL
  concentration at 1.5 hr: 817 ng/mL
  concentration at 2 hr: 513 ng/mL
[3]; male, Sprague-Dawley, rat, in vivo, iv, IV 1.5 mg/animal, Normal Saline, Ex.5, 0.083 hr, individual rats
  concentration at 0.083 hr: 19400 ng/mL
[3]; male, Sprague-Dawley, rat, in vivo, iv, IV 1.5 mg/animal, Normal Saline, Ex.5, 0.083 hr, mean
  concentration at 0.083 hr: 17900 ng/mL
